By IC50 is commonly meant the point on the concentration scale where inhibition reaches its midpoint. Higher therefore signals weaker potency.

The source of these data is publication PMC10931745 (International Journal of Molecular Sciences, 2024).

In test [1] the test system is human mammary epithelial cell line MCF-10A. Briefly: MTT assay, toxicity towards normal cells. The settings on record: 72 h. Format: cell-based. In a few lines: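 Cancer lines MCF-7 and MDA-MB-231 and non-tumour MCF-10A cells were treated 72 h with compound at 0.1–500 µM. Viability read by MTT; IC50 calculated from percent of untreated control.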
Background: Tetrazolium assays rely on reduction of a dye to a coloured formazan, in cell work by metabolically active cells.

Test [2] deals with MDA-MB-231 cells. The test can be described thus: TUNEL assay (DNA damage/apoptosis). It counts as cell-based, human. The following applies: 30 µM, 24 h. The protocol: The terminal deoxynucleotidyl transferase dUTP nick end labeling (TUNEL) assay was performed to detect cell apoptosis, following the manufacturer’s protocols (CF™488A TUNEL Assay Apoptosis Detection Kit, Biotium, Hayward, CA, USA), with some modifications, as previously indicated. Nuclei staining was performed using DAPI solution (0.2 µg/mL, Sigma Aldrich, Milan, Italy). A fluorescence microscope (Leica DM 6000) was used for the cell examinations at 20× magnification. LAS-X software 3.5.7.23225 was employed for the acquisition and processing of the images, which were representative of three independent experiments.

A short description of test [3]: ABTS radical scavenging assay. Format: biochemical. The gist of the method: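 Complexes tested at 5, 10, 25, 50 and 100 µg/mL against ABTS radical cation; absorbance at 730 nm. Scavenging expressed as percent inhibition versus control, IC50 derived from %IABTS.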
The nature of test [4]: DPPH radical scavenging assay. It counts as biochemical. The gist of the method: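 Complexes tested at 10, 25, 50, 100 and 200 µg/mL against DPPH radical, absorbance read at 517 nm. Inhibition % calculated relative to DPPH control absorbance, with IC50 derived from these percentages. Trolox served as positive control; caffeine and theophylline as references.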
The test system of test [5] is Escherichia coli (ATCC 25922). The test can be described thus: MIC/MBC broth dilution. Format: cell-based. In a few lines:
(§1)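 Broth dilution per CLSI; complexes at 50, 70, 100, 150 and 200 µg/mL incubated with bacteria overnight at 37 °C, growth read at 600 nm. MIC/MBC (µg/mL) assigned against vehicle (DMSO) control in LB; three independent experiments in triplicate.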
On the technique in general: In broth dilution the organism is exposed to a series of concentrations in liquid medium.

Test [6] concerns Klebsiella pneumoniae (ATCC 13883). The test can be described thus: MIC/MBC broth dilution. Format: cell-based. The gist of the method: as §1
In test [7] the test system is Pseudomonas aeruginosa (ATCC 15442). The test can be described thus: MIC/MBC broth dilution. Format: cell-based. In a few lines: (§2)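 Broth dilution per CLSI; complexes at 50, 70, 100, 150 and 200 µg/mL incubated with bacteria overnight at 37 °C. Growth read at 600 nm; MIC/MBC (µg/mL) set by comparing cell density with vehicle (DMSO) control grown in LB medium.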
Test [8] relates to Salmonella typhimurium (ATCC 14028). The test can be described thus: MIC/MBC broth dilution. It counts as cell-based. The gist of the method:
as §2

The structures appear in SMILES notation.

As to `Cn1c(=O)c2c(n(C)[c]([Au-][I])[n+]2CC(O)c2ccccc2)n(C)c1=O` (racemic) [AuL1, 1,3,7-Trimethylxanthin-9-[(2-hydroxy-2-phenyl)ethyl-8-ylidene]Au(I) Iodide], in test [1], the IC50 is > 100 µM. The “DNA damage (green nuclear fluorescence, TUNEL)” value in test [2] is “formation of a green nuclear fluorescence”. This molecule gave an IC50 in test [3] of 161 ± 1 µM. In test [4], the half-maximal inhibitory concentration (IC50) is > 500 µM. In test [5], the “M.B.C. E. coli” value is reported as > 200 µg/mL and the “M.I.C. E. coli” value amounted to 150 µg/mL. In addition, in test [6], the “M.B.C. K. pneumoniae” value is > 200 µg/mL and the “M.I.C. K. pneumoniae” value came to 150 µg/mL. Further, in test [7], the “M.B.C. P. aeruginosa” value is > 125 µg/mL and the “M.I.C. P. aeruginosa” value is 100 µg/mL. Moreover, in test [8], the “M.B.C. S. typhimurium” value is > 200 µg/mL and the “M.I.C. S. typhimurium” value turned out to be 150 µg/mL.

With `CC(=O)[O][Ag-][c]1n(C)c2c(c(=O)n(C)c(=O)n2C)[n+]1C1CCCCC1O` (stereo not drawn) [AgL2OAc, 1,3,7-Trimethylxanthin-9-[cyclohexan-2-ol-8-ylidene]Ag(I) Acetate], in test [1], the IC50 was > 100 µM. Further, the “DNA damage (green nuclear fluorescence, TUNEL)” value in test [2] is “formation of a green nuclear fluorescence”. The same molecule yielded a half-maximal inhibitory concentration (IC50) in test [3] of 145.4 ± 1.1 µM. Moreover, in test [4], the IC50 was > 500 µM. Also, in test [5], the “M.B.C. E. coli” value is reported as > 150 µg/mL and the “M.I.C. E. coli” value was 100 µg/mL. Moreover, in test [6], the “M.B.C. K. pneumoniae” value is > 150 µg/mL and the “M.I.C. K. pneumoniae” value amounted to 125 µg/mL. Besides, in test [7], the “M.B.C. P. aeruginosa” value is reported as > 125 µg/mL and the “M.I.C. P. aeruginosa” value came out at 100 µg/mL. In test [8], the “M.B.C. S. typhimurium” value is reported as > 200 µg/mL and the “M.I.C. S. typhimurium” value was 150 µg/mL.
